Results reported in patent US9827187B2, “Filaggrin gene expression promoter” (Shiseido Company, Ltd., priority 2012, dated 2017).

Key:
filaggrin gene [1] = assay: Screening pharmaceutical agents that promote filaggrin gene expression (QPCR, cultured keratinocytes); assay type: cell-based, human; conditions: candidate agent at 1% in medium; normal adult skin-derived keratinocytes; 18 hours after addition; relative to RPLP0; FIG. 3
Method: Commercially available normal adult skin-derived keratinocytes (Cellntec AG) were disseminated in a culture plate to a concentration of 3×10^3 cells/cm^2 followed by culturing in epithelial cell medium (CnT-BM.1, Cellntec AG) at 37° in a 5% CO2 atmosphere. Three days later, the medium was replaced with medium containing each of the candidate pharmaceutical agents at a concentration of 1% followed by continuing culturing at 37° C. and 5% CO2 and collecting the cells after 2 hours and after 18 hours. The candidate pharmaceutical agents added to the medium consisted of zanthoxylum extract (Maruzen Pharmaceuticals Co., Ltd.), geranium oil (Koei Kogyo Co., Ltd.), cypress oil (Bioland Co., Ltd.), rose oil (Bioland Co., Ltd.), galvanum oil (Bioland Co., Ltd.), pepper oil (Bioland Co., Ltd.), basil oil (Bioland Co., Ltd.), methyl-o-toluate (Aldrich Inc.), methyl anthranilate (Tokyo Chemical Industry Co., Ltd.), dimethyl anthranilate (Tokyo Chemical Industry Co., Ltd.), clove bud caryophyllata oil (Bioland Co., Ltd.) and arnica oil (Koei Kogyo Co., Ltd.). The absence of addition of pharmaceutical agent was used as a negative control, and cortisol (concentration in medium: 50 ng/mL) was used as a positive control.
RNA was extracted from the collected cells using a commercially available RNA extraction-cDNA synthesis kit (FastLane Cell cDNA Kit, Qiagen N.V.) to prepare cDNA. Filaggrin expression levels were measured by quantitative PCR (QPCR) using this cDNA. Expression levels of clock genes PER3 and BMAL1 were measured simultaneously and compared with the expression rhythm of filaggrin gene. A commercially available QPCR reagent kit (Brilliant III Ultra-Fast SYBR Green QPCR Kit, Agilent Technologies Inc.) and QPCR measurement system (MX-3000P Real-time Quantitative PCR System, Agilent Technologies Inc.) were used for QPCR. The expression level of a housekeeping gene in the form of RPLP0 gene was quantified for use as an internal standard, and the relative expression level with respect to PLP0 was calculated and used as the expression level of filaggrin gene. […]

filaggrin gene [2] = assay: Filaggrin gene expression promotion by 1PP, zanthoxylum extract and their combination (QPCR, cultured keratinocytes); assay type: cell-based, human; conditions: agent at 0.1% in medium (combination: 0.1% each); keratinocytes collected after 18 hours; versus no-agent control; FIG. 4
Method: Commercially available normal adult skin-derived keratinocytes (Cellntec AG) were disseminated in a culture plate to a concentration of 3×10^3 cells/cm^2 followed by culturing in epithelial cell medium (CnT-BM.1, Cellntec AG) at 37° in a 5% CO2 atmosphere. […] The absence of addition of pharmaceutical agent was used as a control.
RNA was extracted from the collected cells using a commercially available RNA extraction-cDNA synthesis kit (FastLane Cell cDNA Kit, Qiagen N.V.) to prepare cDNA. Filaggrin expression levels were measured by quantitative PCR (QPCR) using this cDNA. A commercially available QPCR reagent kit (Brilliant III Ultra-Fast SYBR Green QPCR Kit, Agilent Technologies Inc.) and QPCR measurement system (MX-3000P Real-time Quantitative PCR System, Agilent Technologies Inc.) were used for QPCR. The expression level of a housekeeping gene in the form of RPLP0 gene was quantified for use as an internal standard, and the relative expression level with respect to PLP0 was calculated and used as the expression level of filaggrin gene. The primer sequences shown in Table 1 were used for the sequences of the PCR primers.

COC(=O)c1ccccc1C [methyl-o-toluate, methyl 2-methylbenzoate]
expression of filaggrin gene after 18 hours in comparison with the negative control (filaggrin gene [1]): promote expression of filaggrin gene

CNc1ccccc1C(=O)OC [dimethyl anthranilate, 2-methyl aminomethylbenzoate]
expression of filaggrin gene after 18 hours in comparison with the negative control (filaggrin gene [1]): promote expression of filaggrin gene

O=C(O)CCN1CCCCC1 [1PP, 3-(1′-piperidine)propionic acid]
effect of promoting filaggrin gene expression (filaggrin gene [2]): effect of promoting filaggrin gene expression that was comparable to that of zanthoxylum extract

COC(=O)c1ccccc1N [methyl anthranilate, methyl 2-aminobenzoate]
expression of filaggrin gene after 18 hours in comparison with the negative control (filaggrin gene [1]): promote expression of filaggrin gene
